ChEMBL document CHEMBL1201862, “PubChem BioAssay data set” (2004)
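1) Cells in 96-well plates. 2) Compound, 48 h, 5 concentrations. 3) Linear interpolation between surrounding doses. 4) Unreached endpoint = highest concentration. Abbreviation: GI50, concentration required for 50% inhibition of growth.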 The source made the active and inactive calls. No stated cut-off is given here; in the data, active = GI50 up to about 1.1 µM and inactive = higher.

Legend:
Test in all cases: growth of human tumour cells (NCI), 48 h
[1] = system: OVCAR-3
[2] = system: SK-MEL-2
[3] = system: A549
[4] = system: NCI-H23
[5] = system: HT-29
[6] = system: BT-549
[7] = system: SNB-19
[8] = system: LOX IMVI
[9] = system: SK-MEL-28
[10] = system: HOP-92
[11] = system: NCI/ADR-RES
[12] = system: MDA-MB-231
[13] = system: CCRF-CEM
[14] = system: NCI-H460
[15] = system: COLO 205
[16] = system: NCI-H522
[17] = system: IGROV-1
[18] = system: MDA-N
[19] = system: TK-10
[20] = system: EKVX
[21] = system: OVCAR-8
[22] = system: ACHN
[23] = system: T47D
[24] = system: UO-31
[25] = system: DU-145
[26] = system: MOLT-4
[27] = system: U-251
[28] = system: HL-60
[29] = system: MDA-MB-435
[30] = system: UACC-257
[31] = system: Hs-578T
[32] = system: OVCAR-4
[33] = system: SF-539
[34] = system: A498
[35] = system: HCT-15
[36] = system: M14
[37] = system: HOP-62
[38] = system: SR
[39] = system: CAKI-1
[40] = system: SN12C
[41] = system: SF-295
[42] = system: MCF7
[43] = system: HCT-116
[44] = system: UACC-62
[45] = system: HCC 2998
[46] = system: K562
[47] = system: SF-268
[48] = system: RXF 393
[49] = system: 786-0
[50] = system: SW-620
[51] = system: PC-3
[52] = system: OVCAR-5
[53] = system: SK-MEL-5
[54] = system: SNB-75
[55] = system: NCI-H226
[56] = system: Malme-3M
[57] = system: KM12
[58] = system: RPMI-8226
[59] = system: SK-OV-3

Q: Which results are given for N#CCCSC1SC(=C2SC3=C(SCCS3)S2)SC1SCCC#N (centres undefined)?
A: GI50 [1]: > 100 µM (inactive); GI50 [2]: > 100 µM (inactive); GI50 [3]: > 100 µM (inactive); GI50 [4]: > 100 µM (inactive); GI50 [5]: > 100 µM (inactive); GI50 [6]: > 100 µM (inactive); GI50 [7]: > 100 µM (inactive); GI50 [8]: > 100 µM (inactive); GI50 [9]: > 100 µM (inactive); GI50 [10]: > 100 µM (inactive); GI50 [11]: > 100 µM (inactive); GI50 [12]: > 100 µM (inactive); GI50 [13]: > 100 µM (inactive); GI50 [14]: > 100 µM (inactive); GI50 [15]: > 100 µM (inactive); GI50 [16]: > 100 µM (inactive); GI50 [17]: > 100 µM (inactive); GI50 [18]: > 100 µM (inactive); GI50 [19]: > 100 µM (inactive); GI50 [20]: > 100 µM (inactive); GI50 [21]: > 100 µM (inactive); GI50 [22]: > 100 µM (inactive); GI50 [23]: > 100 µM (inactive); GI50 [24]: > 100 µM (inactive); GI50 [25]: > 100 µM (inactive); GI50 [26]: > 100 µM (inactive); GI50 [27]: > 100 µM (inactive); GI50 [28]: > 100 µM (inactive); GI50 [29]: > 100 µM (inactive); GI50 [30]: > 100 µM (inactive); GI50 [31]: > 100 µM (inactive); GI50 [32]: > 100 µM (inactive); GI50 [33]: > 100 µM (inactive); GI50 [34]: > 100 µM (inactive); GI50 [35]: > 100 µM; GI50 [36]: > 100 µM (inactive); GI50 [37]: > 100 µM (inactive); GI50 [38]: > 100 µM (inactive); GI50 [39]: > 100 µM (inactive); GI50 [40]: > 100 µM (inactive); GI50 [41]: > 100 µM (inactive); GI50 [42]: > 100 µM (inactive); GI50 [43]: > 100 µM (inactive); GI50 [44]: > 100 µM (inactive); GI50 [45]: > 100 µM (inactive); GI50 [46]: > 100 µM (inactive); GI50 [47]: > 100 µM (inactive); GI50 [48]: > 100 µM (inactive); GI50 [49]: > 100 µM (inactive); GI50 [50]: > 100 µM (inactive); GI50 [51]: > 100 µM (inactive); GI50 [52]: > 100 µM (inactive); GI50 [53]: > 100 µM (inactive)

Q: For COc1ccc2c(c1)c1c(n2CCN2CCOCC2)-c2ccccc2CC1, which GI50 [1] is on record?
A: 44.8 µM (inactive)

Q: What about the GI50 [54] of the same compound?
A: 39.7 µM (inactive)

Q: And the GI50 [2]?
A: 25.4 µM (inactive)

Q: And the GI50 [3]?
A: 30.8 µM (inactive)

Q: What about the GI50 [4] of the same compound?
A: > 100 µM (inactive)

Q: And the GI50 [5]?
A: 36.6 µM (inactive)

Q: And the GI50 [55]?
A: 21.4 µM (inactive)

Q: What about the GI50 [6] of the same compound?
A: > 100 µM (inactive)

Q: What about the GI50 [9] of the same compound?
A: 42.4 µM (inactive)

Q: And the GI50 [10]?
A: 46.8 µM (inactive)

Q: What about the GI50 [11] of the same compound?
A: 35.5 µM (inactive)

Q: What about the GI50 [12] of the same compound?
A: 29.4 µM (inactive)

Q: And the GI50 [13]?
A: 27.2 µM (inactive)

Q: And the GI50 [14]?
A: 31.9 µM (inactive)

Q: And the GI50 [15]?
A: 17.1 µM (inactive)

Q: What about the GI50 [16] of the same compound?
A: 35.4 µM (inactive)

Q: What about the GI50 [17] of the same compound?
A: 37.2 µM (inactive)

Q: And the GI50 [18]?
A: 32.2 µM (inactive)

Q: And the GI50 [19]?
A: 48.1 µM (inactive)

Q: And the GI50 [21]?
A: 34.2 µM (inactive)

Q: What about the GI50 [22] of the same compound?
A: 38.5 µM (inactive)

Q: And the GI50 [23]?
A: 39.5 µM (inactive)

Q: And the GI50 [24]?
A: > 100 µM (inactive)

Q: What about the GI50 [25] of the same compound?
A: 35.7 µM (inactive)

Q: What about the GI50 [26] of the same compound?
A: 17.1 µM (inactive)

Q: What about the GI50 [27] of the same compound?
A: 29.9 µM (inactive)

Q: What about the GI50 [29] of the same compound?
A: 34 µM (inactive)

Q: What about the GI50 [56] of the same compound?
A: 32.8 µM (inactive)

Q: What about the GI50 [30] of the same compound?
A: 47.1 µM (inactive)

Q: What about the GI50 [31] of the same compound?
A: 18.8 µM (inactive)

Q: And the GI50 [32]?
A: 48.4 µM (inactive)

Q: And the GI50 [33]?
A: 23.1 µM (inactive)

Q: What about the GI50 [34] of the same compound?
A: 32.9 µM (inactive)

Q: What about the GI50 [35] of the same compound?
A: 29.9 µM

Q: And the GI50 [36]?
A: 41.4 µM (inactive)

Q: What about the GI50 [37] of the same compound?
A: 45.4 µM (inactive)

Q: What about the GI50 [38] of the same compound?
A: 18.2 µM (inactive)

Q: What about the GI50 [57] of the same compound?
A: 32.8 µM (inactive)

Q: And the GI50 [39]?
A: > 100 µM (inactive)

Q: And the GI50 [58]?
A: 22.5 µM (inactive)

Q: What about the GI50 [40] of the same compound?
A: 18.8 µM (inactive)

Q: What about the GI50 [41] of the same compound?
A: 27.9 µM (inactive)

Q: And the GI50 [42]?
A: 30.8 µM (inactive)

Q: And the GI50 [43]?
A: 33.5 µM (inactive)

Q: And the GI50 [44]?
A: > 100 µM (inactive)

Q: What about the GI50 [45] of the same compound?
A: 20.7 µM (inactive)

Q: What about the GI50 [46] of the same compound?
A: 15.3 µM (inactive)

Q: What about the GI50 [59] of the same compound?
A: > 100 µM (inactive)

Q: What about the GI50 [47] of the same compound?
A: 42.3 µM (inactive)

Q: And the GI50 [48]?
A: 34 µM (inactive)

Q: And the GI50 [49]?
A: 37.4 µM (inactive)

Q: And the GI50 [50]?
A: 32 µM (inactive)

Q: And the GI50 [51]?
A: 26.1 µM (inactive)

Q: What about the GI50 [52] of the same compound?
A: 71.4 µM (inactive)

Q: And the GI50 [53]?
A: 20.7 µM (inactive)

Q: For CC(C)(C)OC(=O)NC(Cc1ccc([N+](=O)[O-])cc1)C(=O)NC(CCCCNC(=O)OCc1ccccc1)C(=O)ON1C(=O)CCC1=O (centres undefined), which GI50 [1] is on record?
A: > 100 µM (inactive)

Q: And the GI50 [54]?
A: > 100 µM (inactive)

Q: And the GI50 [3]?
A: > 100 µM (inactive)

Q: And the GI50 [4]?
A: > 100 µM (inactive)

Q: What about the GI50 [5] of the same compound?
A: > 100 µM (inactive)

Q: What about the GI50 [55] of the same compound?
A: > 100 µM (inactive)

Q: And the GI50 [6]?
A: > 100 µM (inactive)

Q: And the GI50 [7]?
A: > 100 µM (inactive)

Q: What about the GI50 [8] of the same compound?
A: 28.8 µM (inactive)

Q: And the GI50 [9]?
A: > 100 µM (inactive)

Q: What about the GI50 [10] of the same compound?
A: > 100 µM (inactive)

Q: And the GI50 [11]?
A: > 100 µM (inactive)

Q: And the GI50 [12]?
A: 43.8 µM (inactive)

Q: What about the GI50 [14] of the same compound?
A: > 100 µM (inactive)

Q: And the GI50 [15]?
A: > 100 µM (inactive)

Q: What about the GI50 [16] of the same compound?
A: > 100 µM (inactive)

Q: What about the GI50 [17] of the same compound?
A: > 100 µM (inactive)

Q: What about the GI50 [18] of the same compound?
A: > 100 µM (inactive)

Q: What about the GI50 [19] of the same compound?
A: > 100 µM (inactive)

Q: What about the GI50 [20] of the same compound?
A: > 100 µM (inactive)

Q: What about the GI50 [21] of the same compound?
A: > 100 µM (inactive)

Q: What about the GI50 [22] of the same compound?
A: > 100 µM (inactive)

Q: What about the GI50 [23] of the same compound?
A: > 10 µM (inactive)

Q: What about the GI50 [24] of the same compound?
A: > 100 µM (inactive)

Q: And the GI50 [25]?
A: > 100 µM (inactive)

Q: What about the GI50 [26] of the same compound?
A: 57.9 µM (inactive)

Q: What about the GI50 [27] of the same compound?
A: > 100 µM (inactive)

Q: What about the GI50 [28] of the same compound?
A: 78.3 µM (inactive)

Q: What about the GI50 [29] of the same compound?
A: > 100 µM (inactive)

Q: What about the GI50 [56] of the same compound?
A: > 100 µM (inactive)

Q: What about the GI50 [31] of the same compound?
A: > 100 µM (inactive)

Q: What about the GI50 [32] of the same compound?
A: > 100 µM (inactive)

Q: What about the GI50 [33] of the same compound?
A: > 100 µM (inactive)

Q: What about the GI50 [34] of the same compound?
A: > 100 µM (inactive)

Q: What about the GI50 [35] of the same compound?
A: > 100 µM

Q: And the GI50 [36]?
A: 70.3 µM (inactive)

Q: And the GI50 [37]?
A: > 100 µM (inactive)

Q: And the GI50 [38]?
A: 49.4 µM (inactive)

Q: And the GI50 [57]?
A: > 100 µM (inactive)

Q: What about the GI50 [39] of the same compound?
A: > 100 µM (inactive)

Q: What about the GI50 [58] of the same compound?
A: 57 µM (inactive)

Q: What about the GI50 [40] of the same compound?
A: 70.6 µM (inactive)

Q: What about the GI50 [41] of the same compound?
A: 40 µM (inactive)

Q: What about the GI50 [42] of the same compound?
A: > 100 µM (inactive)

Q: And the GI50 [43]?
A: 73.5 µM (inactive)

Q: What about the GI50 [44] of the same compound?
A: > 100 µM (inactive)

Q: And the GI50 [45]?
A: 24.4 µM (inactive)

Q: What about the GI50 [46] of the same compound?
A: 14.4 µM (inactive)

Q: What about the GI50 [59] of the same compound?
A: > 100 µM (inactive)

Q: And the GI50 [47]?
A: 44.2 µM (inactive)

Q: And the GI50 [48]?
A: > 100 µM (inactive)

Q: What about the GI50 [49] of the same compound?
A: > 100 µM (inactive)

Q: What about the GI50 [50] of the same compound?
A: 26.7 µM (inactive)

Q: And the GI50 [51]?
A: 52.5 µM (inactive)

Q: What about the GI50 [52] of the same compound?
A: > 100 µM (inactive)

Q: And the GI50 [53]?
A: > 100 µM (inactive)
